Data as given in patent US12465580B2, “Substituted fatty acids for treating non-alcoholic steatohepatitis” (BASF AS, priority 2015, dated 2025).

Assays:
[1] = tested on: APOE*3Leiden.CETP double transgenic mice; test: Hepatic cholesterol content (liver lipids) in diet induced NAFLD/NASH mouse model; type: in vivo; settings: for Effect on hepatic cholesterol ester vs control: Compound N p<0.001, Reference A p<0.05; for Liver lipids, Cholesterol ester (CE in FIG. 1), AVG ± SD / Liver lipids, Free cholesterol (FC in FIG. 1), AVG ± SD: ApoE*3L-CETP mice, high fat diet, 0.25% cholesterol w/w, daily gavage
Experimental: (§1) The APOE*3Leiden.CETP double transgenic mouse is expressing a variant of the human apolipoprotein E3 (APOE3), the APOE*3Leiden, in addition to the human apolipoprotein C1 (APOC1) and CETP. […] By increasing the cholesterol content of the diet in this model, all the characteristics of human NASH develop.
(§2) Studies were performed in APOE*3Leiden.CETP mice placed on a high fat diet (24% fat w/w) with varying cholesterol content (0.25-1% cholesterol w/w). In one study (using 1% cholesterol w/w), after a 3 weeks run-in period 17 (20%) low-responder mice were removed from the study and the remaining 65 mice were sub-divided into groups of 12 mice each (+5 in the control group), matched for plasma cholesterol, triglycerides, blood glucose, body weight and age (t=0) and treatment was started. The mice received a daily gavage between 07 hr00 and 10 hr00 with either Compound N, Reference A or control (corn oil). After 4, 8, 12, 16 and 20 weeks of treatment blood samples were taken after a 5 hour fasting period (also 5 hours after compound or vehicle administration). Plasma cholesterol and triglycerides were measured. After 14 weeks of treatment 5 representative mice from the control group were sacrificed in order to assess the NASH development and to determine the termination of the study. After 20 weeks of treatment mice were sacrificed by CO2 asphyxiation, heparin heart blood was sampled and tissues were collected. Hepatic steatosis, inflammation and collagen content were analyzed.
(§3) A further study was performed in APOE*3Leiden.CETP mice with a 4-week active treatment arm in mice placed on a high fat diet (24% fat and 0.25% cholesterol diet, both w/w) to collect additional metabolic data.
A mild decrease in cholesterol ester was also observed with Reference A (p<0.05). A 43% reduction in total hepatic cholesterol (statistics not performed).

[2] = tested on: APOE*3Leiden.CETP double transgenic mice; test: Hepatic inflammation (number of foci, inflammation score) in diet induced NAFLD/NASH mouse model; type: in vivo; settings: for Inflammation Score (0-3), Mean ± SD / Inflammation, Number of foci, Mean ± SD: ApoE*3L-CETP mice, high fat/cholesterol diet, liver after 20 weeks of treatment
Experimental: as §1, §2

[3] = tested on: APOE*3Leiden.CETP double transgenic mice; test: Hepatic steatosis (macrovesicular and microvesicular) in diet induced NAFLD/NASH mouse model; type: in vivo; settings: for Steatosis as % of the liver, Macrovesicular, Mean ± SD / Steatosis as % of the liver, Microvesicular, Mean ± SD: ApoE*3L-CETP mice, high fat/cholesterol diet, liver after 20 weeks of treatment; for Effect on macrovesicular steatosis vs control: Compound N p<0.001 vs. control
Experimental: as §1, §2

[4] = tested on: APOE*3Leiden.CETP double transgenic mice; test: Fecal bile acid content in diet induced NAFLD/NASH mouse model; type: in vivo; settings: for Total bile acids (fecal), AVG ± SD: ApoE*3L-CETP double transgenic mice, feces
Experimental: as §1, §2, §3

[5] = tested on: APOE*3Leiden.CETP double transgenic mice; test: Hepatic fibrosis (collagen content) in diet induced NAFLD/NASH mouse model; type: in vivo; settings: for Fibrosis, Hydroxyprolin/Prolin, Mean ± SD: ApoE*3L-CETP double transgenic mice, hepatic collagen content, after 20 weeks of treatment
Experimental: as §1, §2

[6] = tested on: APOE*3Leiden.CETP double transgenic mice; test: Total plasma cholesterol in diet induced NAFLD/NASH mouse model; type: in vivo
Experimental: as §1, §2, §3
Plasma HDL cholesterol values were adoubled (p<0.001, data not shown), underlying the fact that the reduction in plasma cholesterol was specific to the atherogenic apoB particle associated cholesterol fraction.

[7] = tested on: APOE*3Leiden.CETP double transgenic mice; settings: earlier study; cited from earlier work

SMILES	Effect on hepatic cholesterol ester vs control ([1]; 0.25% cholesterol diet w/w)	Liver lipids, Cholesterol ester (CE in FIG. 1), AVG ± SD [1] [μg lipid/mg liver protein]	Liver lipids, Free cholesterol (FC in FIG. 1), AVG ± SD [1] [μg lipid/mg liver protein]	Inflammation Score (0-3), Mean ± SD [2]	Inflammation, Number of foci, Mean ± SD [2]	Steatosis as % of the liver, Macrovesicular, Mean ± SD [3] [%]	Steatosis as % of the liver, Microvesicular, Mean ± SD [3] [%]	Effect on macrovesicular steatosis vs control [3]	Total bile acids (fecal), AVG ± SD [4] [μmol/100 gr mouse/day]	Fibrosis, Hydroxyprolin/Prolin, Mean ± SD [5]	Effect on plasma cholesterol, previously shown [7]	also measured
CC/C=C\C/C=C\C/C=C\C/C=C\C/C=C\CCCCSC(CC)(CC)C(=O)O [Compound N, 2-ethyl-2-((5Z,8Z,11Z,14Z,17Z)-icosa-5,8,11,14,17-pentaenylthio)butanoic Acid]	significant decrease	10.6 ± 2.1	9.8 ± 1.2	0.6 ± 0.8	0.6 ± 0.6	1.1 ± 1.0	57.9 ± 25.4	abolished macrovesicular steatosis	3.2 ± 0.6	0.027 ± 0.007	significantly decrease plasma cholesterol	Reduction in total hepatic cholesterol ([1]; 0.25% cholesterol diet w/w, statistics not performed): 43%; Effect on total inflammation score ([2]; vs control): significant reduction; Reduction in the number of inflammatory foci ([2]; vs control, p<0.001): approximately 85%; Reduction in fecal bile acid excretion ([4]; vs control, p=0.006): 50%; Reduction in hepatic collagen content ([5]; compared to control animals, p<0.005): 30%; Reduction in total plasma cholesterol ([6]; after 4 weeks versus control, p<0.001): 52%; Plasma HDL cholesterol values ([6]; p<0.001, data not shown): doubled; Total plasma cholesterol, t = 0, AVG ± SD ([6]; t = 0 weeks (baseline, start of treatment)): 6.4 ± 1.1 mM; Total plasma cholesterol, t = 2, AVG ± SD ([6]; t = 2 weeks of treatment): 4.2 ± 0.7 mM; Total plasma cholesterol, t = 4, AVG ± SD ([6]; t = 4 weeks of treatment): 4.7 ± 1.3 mM
CC/C=C\C/C=C\C/C=C\C/C=C\C/C=C\CCCCOC(CC)C(=O)O (stereo not drawn) [Reference A, 2-((5Z,8Z,11Z,14Z,17Z)-icosa-5,8,11,14,17-pentaenyloxy)butanoic acid, reference compound]	mild decrease	17.0 ± 3.7	9.5 ± 1.3	1.9 ± 1.2	1.9 ± 1.3	21.2 ± 15.0	34.6 ± 11.8	No significant effect	4.0 ± 1.2		significantly decrease plasma cholesterol	Effect on inflammatory foci vs control ([2]; Reference A p<0.01): milder reduction; Effect on fecal bile acid excretion vs control ([4]; p<0.05 vs. control): milder yet significant decrease
CN(CCOc1ccc(CC2SC(=O)NC2=O)cc1)c1ccccn1 (stereo not drawn) [Rosiglitazone]				1.7 ± 1.2	1.6 ± 1.6	14.3 ± 20.2	52.5 ± 18.4	No significant effect		0.036 ± 0.007		
